Patent US20120157471A1, “BENZIMIDAZOLE DERIVATIVES” (PFIZER INC., priority 2009, published 2012)
pIC50: −log10 of the molar value.

Assays:
[1] = molecular target: T1, human Smo (amino acids 181-787) (Homo sapiens, UniProt Q99835); test: Smo radioligand competition binding assay (displacement of 3H-PF-03451358 from HEK293 membranes); conditions: for inhibition at 0.05 µM: 0.05 μM test compound, displacement of 3H-PF-03451358, read-out: SMO % inh. @ 0.05 μM; for pIC50: radioligand competition binding
T1 construct: expressed in transfected cells; membrane preparation
T1 sequence (Q99835 181-787): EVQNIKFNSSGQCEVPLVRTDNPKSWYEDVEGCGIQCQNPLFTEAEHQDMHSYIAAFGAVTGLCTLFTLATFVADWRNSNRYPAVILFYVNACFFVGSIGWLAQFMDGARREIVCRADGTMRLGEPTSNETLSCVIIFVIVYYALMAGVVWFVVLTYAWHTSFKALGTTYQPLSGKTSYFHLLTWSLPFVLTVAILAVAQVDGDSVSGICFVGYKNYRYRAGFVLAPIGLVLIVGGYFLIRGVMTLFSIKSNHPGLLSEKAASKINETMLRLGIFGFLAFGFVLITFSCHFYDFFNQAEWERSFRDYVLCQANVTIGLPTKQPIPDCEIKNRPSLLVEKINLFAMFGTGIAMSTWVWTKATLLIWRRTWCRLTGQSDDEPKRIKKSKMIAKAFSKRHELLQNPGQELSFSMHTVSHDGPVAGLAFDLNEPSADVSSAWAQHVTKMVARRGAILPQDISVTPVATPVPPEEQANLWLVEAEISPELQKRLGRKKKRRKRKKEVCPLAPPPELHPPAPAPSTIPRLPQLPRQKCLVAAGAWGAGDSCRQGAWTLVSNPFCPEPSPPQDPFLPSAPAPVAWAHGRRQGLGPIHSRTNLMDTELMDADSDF
Method in brief: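 Displacement of 3 nM tritiated PF-03451358 measured by filtration and scintillation counting after 2 h at room temperature, using 40 μg/well HEK293 membranes bearing cell-surface Smo 181-787, pH 7.5 buffer. Specific binding defined against 30 μM unlabelled ligand; IC50 via variable-slope sigmoidal fit.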

[2] = test system: Gli-Luc/MEF cells (Smo); test: Gli-Luc/MEF assay (Shh-stimulated luciferase reporter under the Gli response element); type: cell-based, mouse; conditions: Mus musculus, MEF, 48 h
Method in brief: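 IC50 derived from luminescence (Bright-Glo) after 48 h at 37° C, 5% CO2, with compound at […] (3-fold dilutions) added together with mouse Shh at 2 μg/mL final. Cells: MEFs from Gli-Luc transgenic mice.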

Structure (SMILES)	inhibition at 0.05 µM [1] [%]	pIC50 [1]	pIC50 [2]
Cn1c(-c2cc(N3CCC(CS(C)(=O)=O)CC3)ncc2Cl)nc2ccccc21 [Example A-51, 2-(5-chloro-2-{4-[(methylsulfonyl)methyl]piperidin-1-yl}pyridin-4-yl)-1-methyl-1H-benzimidazole]	99	8.22	8.15
COC(=O)N1CCN(c2cc(-c3nc4ccccc4n3C)c(Cl)cn2)CC1 [Example A-2, methyl 4-[5-chloro-4-(1-methyl-1H-benzimidazol-2-yl)pyridin-2-yl]piperazine-1-carboxylate]	87	7.76	8.52
Cn1c(-c2cc(N3CCn4cnnc4C3)ncc2Cl)nc2ccccc21 [Example A-109, 7-[5-chloro-4-(1-methyl-1H-benzimidazol-2-yl)pyridin-2-yl]-5,6,7,8-tetrahydro[1,2,4]triazolo[4,3-a]pyrazine]	75	6.89	6.85
Cn1c(-c2cc(N3CCc4nnc(C5CC5)n4CC3)ncc2Cl)nc2ccccc21 [Example A-68, 7-[5-chloro-4-(1-methyl-1H-benzimidazol-2-yl)pyridin-2-yl]-3-cyclopropyl-6,7,8,9-tetrahydro-5H-[1,2,4]triazolo[4,3-d][1,4]diazepine]	94	7.68	7.70
Cn1nc2n(c1=O)CCN(c1cc(-c3nc4ccccc4n3C)c(Cl)cn1)CC2 [Example A-78, 7-[5-chloro-4-(1-methyl-1H-benzimidazol-2-yl)pyridin-2-yl]-2-methyl-2,5,6,7,8,9-hexahydro-3H-[1,2,4]triazolo[4,3-d][1,4]diazepin-3-one]	92	7.85	7.96
Cn1c(-c2cc(N3CCC(C(=O)NCCO)CC3)ncc2Cl)nc2ccccc21 [Example A-74, 1-[5-chloro-4-(1-methyl-1H-benzimidazol-2-yl)pyridin-2-yl]-N-(2-hydroxyethyl)piperidine-4-carboxamide]	93	7.57	7.96
COCC(=O)N1CCN(c2cc(-c3nc4ccccc4n3C)c(Cl)cn2)CC1 [Example A-201, 2-{5-chloro-2-[4-(methoxyacetyl)piperazin-1-yl]pyridin-4-yl}-1-methyl-1H-benzimidazole]	96	7.85	8.06
Cn1c(-c2cc(N3CC(c4ccncn4)C3)ncc2Cl)nc2ccccc21 [Example A-125, 2-[5-chloro-2-(3-pyrimidin-4-ylazetidin-1-yl)pyridin-4-yl]-1-methyl-1H-benzimidazole]	57		6.87
Cn1c(-c2cc(N3C[C@@H]4[C@H](C3)[C@H]4NS(C)(=O)=O)ncc2Cl)nc2ccccc21 [Example A-8, N-{(1R,5S,6S)-3-[5-chloro-4-(1-methyl-1H-benzimidazol-2-yl)pyridin-2-yl]-3-azabicyclo[3.1.0]hex-6-yl}methanesulfonamide]	94	7.19	7.82
Cn1c(-c2cc(N3[C@@H]4CC[C@H]3C[C@@H](NS(C)(=O)=O)C4)ncc2Cl)nc2ccccc21 [Example A-193, N-{(3-endo)-8-[5-chloro-4-(1-methyl-1H-benzimidazol-2-yl)pyridin-2-yl]-8-azabicyclo[3.2.1]oct-3-yl}methanesulfonamide]	103	7.89	8.60
Cn1c(-c2cc(N3CCC(CS(N)(=O)=O)CC3)ncc2Cl)nc2ccccc21 [Example A-65, 1-{1-[5-chloro-4-(1-methyl-1H-benzimidazol-2-yl)pyridin-2-yl]piperidin-4-yl}methanesulfonamide]	95	8.22	8.70
Cn1c(-c2cc(N3CCC4(CC3)CC(O)CCO4)ncc2Cl)nc2ccccc21 (centres unmarked) [Example A-204, 9-[5-chloro-4-(1-methyl-1H-benzimidazol-2-yl)pyridin-2-yl]-1-oxa-9-azaspiro[5.5]undecan-4-ol]	96	7.72	7.90
CNC(=O)N(C)C1CCN(c2cc(-c3nc4ccccc4n3C)c(Cl)cn2)C1 (centres unmarked) [Example A-182, 1-{1-[5-chloro-4-(1-methyl-1H-benzimidazol-2-yl)pyridin-2-yl]pyrrolidin-3-yl}-1,3-dimethylurea]	85	7.30	7.51
Cn1c(-c2cc(N3CCC(OCC(=O)NC4CC4)CC3)ncc2Cl)nc2ccccc21 [Example A-59, 2-({1-[5-chloro-4-(1-methyl-1H-benzimidazol-2-yl)pyridin-2-yl]piperidin-4-yl}oxy)-N-cyclopropylacetamide]	96	7.92	8.52
Cn1c(-c2cc(N3CCC(NS(C)(=O)=O)CC3)ncc2Cl)nc2ccccc21 [Example A-5, N-{1-[5-chloro-4-(1-methyl-1H-benzimidazol-2-yl)pyridin-2-yl]piperidin-4-yl}methanesulfonamide]	97	8.10	9.22
Cn1c(-c2cc(N3CCC(O)(CO)CC3)ncc2Cl)nc2ccccc21 [Example A-69, 1-[5-chloro-4-(1-methyl-1H-benzimidazol-2-yl)pyridin-2-yl]-4-(hydroxymethyl)piperidin-4-ol]	94	7.57	8.00
CC(=O)NC1CCN(c2cc(-c3nc4ccccc4n3C)ccn2)CC1 [Example A-16, N-{1-[4-(1-methyl-1H-benzimidazol-2-yl)pyridin-2-yl]piperidin-4-yl}acetamide]	81	6.99	7.19
Cn1c(-c2nc(N3CCOCC3)ncc2Cl)nc2ccccc21 [Example C-12, 2-(5-chloro-2-morpholin-4-ylpyrimidin-4-yl)-1-methyl-1H-benzimidazole]	93	7.33	7.22
Cn1c(-c2cc(N3CCN(CC(O)CO)CC3)ncc2Cl)nc2ccccc21 (centres unmarked) [Example A-103, 3-{4-[5-chloro-4-(1-methyl-1H-benzimidazol-2-yl)pyridin-2-yl]piperazin-1-yl}propane-1,2-diol]	80	6.82	7.57
Cn1c(-c2cc(N3C[C@H]4CC[C@@H](C3)N4)ncc2Cl)nc2ccccc21 [Example A-185, 2-{5-chloro-2-[(1R,5S)-3,8-diazabicyclo[3.2.1]oct-3-yl]pyridin-4-yl}-1-methyl-1H-benzimidazole]	91	7.70	7.85
CNC(=O)N1CCN(c2ccc(Cl)c(-c3nc4ccccc4n3C)n2)CC1 [Example B-3, 4-[5-chloro-6-(1-methyl-1H-benzimidazol-2-yl)pyridin-2-yl]-N-methylpiperazine-1-carboxamide]	88	7.31	7.70
COC(=O)NC1CCN(c2cc(-c3nc4ccccc4n3C)c(F)cn2)CC1 [Example D-12, methyl {1-[5-fluoro-4-(1-methy-1H-benzimidazol-2-yl)pyridin-2-yl]plpetidin-4-yl}carbamate]	96	8.10	8.11
